PubChem BioAssay AID248 (DTP/NCI, 2004)
Where “and” joins values, the source holds several entries; their conditions need not be identical. Equal entries are not always repeated. Toxic doses and inconclusive results are not listed.

Tested on: L1210 leukemia ip in BDF1 mice, survival T/C
Test: NCI In Vivo Anticancer Drug Screen. Data for tumor model L1210 Leukemia (intraperitoneal) in B6D2F1 (BDF1) mice
Conditions: endpoint: mean survival time, higher = longer survival
How it was run: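 Transplanted-tumor mice were given test agent; controls received vehicle only. Survival readings from the two groups were divided (treated over control).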

[1] = dose: 100.0 mg/kg/injection, schedule: Q01DX009 (ip), vehicle: saline with Tween-80
[2] = dose: 200.0 mg/kg/injection, schedule: Q01DX009 (ip), vehicle: saline with Tween-80
[3] = dose: 400.0 mg/kg/injection, schedule: Q01DX009 (ip), vehicle: saline with Tween-80
[4] = dose: 100.0 mg/kg/injection, schedule: Q01DX001 (ip), vehicle: saline with Tween-80
[5] = dose: 200.0 mg/kg/injection, schedule: Q01DX001 (ip), vehicle: saline with Tween-80
[6] = dose: 100.0 mg/kg/injection, schedule: Q01DX009 (ip), vehicle: Klucel (hydroxypropylcellulose) (HPC)
[7] = dose: 200.0 mg/kg/injection, schedule: Q01DX009 (ip), vehicle: Klucel (hydroxypropylcellulose) (HPC)
[8] = dose: 400.0 mg/kg/injection, schedule: Q01DX009 (ip), vehicle: Klucel (hydroxypropylcellulose) (HPC)
[9] = dose: 400.0 mg/kg/injection, schedule: Q01DX001 (ip), vehicle: saline with Tween-80
[10] = dose: 200.0 mg/kg/injection, schedule: Q01DX001 (ip), vehicle: saline

CCOC(=O)C(=O)O
T/C (dose: 25.0 mg/kg/injection, schedule: Q01DX009 (ip), vehicle: saline): 96 % of control
T/C (dose: 50.0 mg/kg/injection, schedule: Q01DX009 (ip), vehicle: saline): 103 % of control
T/C (dose: 100.0 mg/kg/injection, schedule: Q01DX009 (ip), vehicle: saline): 96 % of control
T/C (dose: 100.0 mg/kg/injection, schedule: Q04DX002 (ip), vehicle: saline): 106 % of control
T/C (dose: 200.0 mg/kg/injection, schedule: Q04DX002 (ip), vehicle: saline): 109 % of control
T/C (dose: 400.0 mg/kg/injection, schedule: Q04DX002 (ip), vehicle: saline): 97 % of control

CCOC(=O)CNC(=O)Oc1cc(C)cc(C)c1C
T/C [1]: 98 % of control
T/C [2]: 100 % of control
T/C [3]: 98 % of control

CCCCCSc1nccc(N)n1
T/C [4]: 97 % of control
T/C [5]: 103 % of control

CNC(=O)Nc1cccc2c(=O)[nH][nH]c(=O)c12
T/C [6]: 114 % of control
T/C (dose: 100.0 mg/kg/injection, schedule: Q04DX003 (ip), vehicle: Klucel (hydroxypropylcellulose) (HPC)): 97 % of control
T/C [7]: 100 % of control
T/C (dose: 200.0 mg/kg/injection, schedule: Q04DX003 (ip), vehicle: Klucel (hydroxypropylcellulose) (HPC)): 108 % of control
T/C [8]: 86 % of control
T/C (dose: 400.0 mg/kg/injection, schedule: Q04DX003 (ip), vehicle: Klucel (hydroxypropylcellulose) (HPC)): 91 % of control

CC(=O)OCC1OC(N2C(=O)/C(=C/c3ccc(Cl)cc3)SC2=S)C(OC(C)=O)C(OC(C)=O)C1OC(C)=O (centres undefined)
T/C (dose: 25.0 mg/kg/injection, schedule: Q01DX005 (ip), vehicle: other): 97 % of control

CN=C1N[N+]2=CCCCC2(C)S1 (centres undefined)
T/C (dose: 0.2 mg/kg/injection, schedule: Q03HX024 (ip), vehicle: saline): 96 % of control
T/C (dose: 0.39 mg/kg/injection, schedule: Q03HX024 (ip), vehicle: saline): 100 % of control
T/C (dose: 0.78 mg/kg/injection, schedule: Q03HX024 (ip), vehicle: saline): 93 % of control
T/C (dose: 1.56 mg/kg/injection, schedule: Q03HX024 (ip), vehicle: saline): 95 % of control
T/C (dose: 3.13 mg/kg/injection, schedule: Q03HX024 (ip), vehicle: saline): 101 % of control

O=C(c1ccccc1)c1ccc2c3c(cccc13)C(=O)c1ccccc1-2
T/C [4]: 92 % of control
T/C [5]: 92 % of control
T/C [9]: 88 % of control

CCC(C)C(CCN1CCCCC1)(CNC(=O)CN(CC)CC)Cc1cccc2ccccc12 (centres undefined)
T/C (dose: 12.5 mg/kg/injection, schedule: Q04DX003 (ip), vehicle: saline): 101 % of control
T/C (dose: 25.0 mg/kg/injection, schedule: Q04DX003 (ip), vehicle: saline): 103 % of control
T/C (dose: 50.0 mg/kg/injection, schedule: Q04DX003 (ip), vehicle: saline): 98 % of control

O=C1C2(c3ccccc3)CC(CBr)C1(c1ccccc1)C(c1ccccc1)=C2c1ccccc1 (centres undefined)
T/C (dose: 50.0 mg/kg/injection, schedule: Q01DX001 (ip), vehicle: carboxymethylcellulose (CMC)): 97 % of control
T/C (dose: 100.0 mg/kg/injection, schedule: Q01DX001 (ip), vehicle: carboxymethylcellulose (CMC)): 100 % of control
T/C (dose: 200.0 mg/kg/injection, schedule: Q01DX001 (ip), vehicle: carboxymethylcellulose (CMC)): 97 % of control
T/C (dose: 400.0 mg/kg/injection, schedule: Q01DX001 (ip), vehicle: carboxymethylcellulose (CMC)): 97 % of control

CCN(CC)C(=O)OC/C=C\CC(Cl)(Cl)Cl
T/C (dose: 50.0 mg/kg/injection, schedule: Q01DX009 (ip), vehicle: saline sonified): 97 % of control
T/C (dose: 100.0 mg/kg/injection, schedule: Q01DX009 (ip), vehicle: saline sonified): 111 % of control
T/C (dose: 100.0 mg/kg/injection, schedule: Q04DX003 (ip), vehicle: saline sonified): 106 % of control
T/C (dose: 200.0 mg/kg/injection, schedule: Q01DX009 (ip), vehicle: saline sonified): 94 % of control
T/C (dose: 200.0 mg/kg/injection, schedule: Q04DX003 (ip), vehicle: saline sonified): 106 % of control
T/C (dose: 400.0 mg/kg/injection, schedule: Q04DX003 (ip), vehicle: saline sonified): 106 % of control

Cn1c(N)c(C(C[N+](=O)[O-])c2ccccc2)c(=O)n(C)c1=O (centres undefined)
T/C (dose: 50.0 mg/kg/injection, schedule: Q01DX009 (ip), vehicle: Klucel (hydroxypropylcellulose) (HPC)): 95 % of control
T/C [6]: 92 % of control
T/C [7]: 98 % of control

Cc1ccc(Nc2ccc([N+](=O)[O-])cc2)cc1
T/C (dose: 100.0 mg/kg/injection, schedule: Q01DX001 (ip), vehicle: gum acacia): 93 % of control
T/C (dose: 200.0 mg/kg/injection, schedule: Q01DX001 (ip), vehicle: gum acacia): 100 % of control

O=C(Nc1ccc(C2=NCCN2)cc1)c1cc(C(=O)Nc2ccc(C3=NCCN3)cc2)cc([N+](=O)[O-])c1
T/C (dose: 111.0 mg/kg/injection, schedule: Q01DX Z (ip), vehicle: methylcellulose (MC)): 100 % of control
T/C (dose: 167.0 mg/kg/injection, schedule: Q01DX Z (ip), vehicle: methylcellulose (MC)): 104 % of control
T/C (dose: 250.0 mg/kg/injection, schedule: Q01DX Z (ip), vehicle: methylcellulose (MC)): 105 % of control and 207 % of control
T/C (dose: 375.0 mg/kg/injection, schedule: Q01DX Z (ip), vehicle: methylcellulose (MC)): 168 % of control
T/C (dose: 512.0 mg/kg/injection, schedule: Q01DX Z (ip), vehicle: methylcellulose (MC)): 234 % of control
T/C (dose: 768.0 mg/kg/injection, schedule: Q01DX Z (ip), vehicle: methylcellulose (MC)): 268 % of control

O=C1c2ccccc2C(=O)N1CN1CCOCC1
T/C [4]: 105 % of control
T/C [5]: 94 % of control
T/C [9]: 98 % of control

COc1ccc2nc3cc(Cl)ccc3c(NCCCCCN3CCCCC3)c2c1
T/C (dose: 5.0 mg/kg/injection, schedule: Q01DX001 (ip), vehicle: saline): 97 % of control
T/C (dose: 10.0 mg/kg/injection, schedule: Q01DX001 (ip), vehicle: saline): 97 % of control
T/C (dose: 20.0 mg/kg/injection, schedule: Q01DX001 (ip), vehicle: saline): 101 % of control
T/C (dose: 40.0 mg/kg/injection, schedule: Q01DX001 (ip), vehicle: saline): 106 % of control
T/C (dose: 80.0 mg/kg/injection, schedule: Q01DX001 (ip), vehicle: saline): 100 % of control
T/C [10]: 94 % of control

CSc1ccc(C)cc1C
T/C [6]: 105 % of control
T/C [7]: 103 % of control
T/C [8]: 105 % of control

O=C1NC(=S)S/C1=C\c1ccc(F)cc1
T/C (dose: 12.5 mg/kg/injection, schedule: Q04DX003 (ip), vehicle: saline with Tween-80): 117 % of control
T/C (dose: 25.0 mg/kg/injection, schedule: Q04DX003 (ip), vehicle: saline with Tween-80): 98 % of control
T/C (dose: 50.0 mg/kg/injection, schedule: Q04DX003 (ip), vehicle: saline with Tween-80): 103 % of control

COc1ccccc1NC(=O)Nc1ccccc1Cl
T/C [1]: 88 % of control
T/C (dose: 100.0 mg/kg/injection, schedule: Q04DX003 (ip), vehicle: saline with Tween-80): 89 % of control
T/C [2]: 112 % of control
T/C (dose: 200.0 mg/kg/injection, schedule: Q04DX003 (ip), vehicle: saline with Tween-80): 92 % of control
T/C [3]: 92 % of control
T/C (dose: 400.0 mg/kg/injection, schedule: Q04DX003 (ip), vehicle: saline with Tween-80): 89 % of control

c1ccc(C(c2ccccc2)n2cc[n+](C(c3ccccc3)c3ccccc3)c2)cc1
T/C (dose: 12.5 mg/kg/injection, schedule: Q04DX002 (ip), vehicle: gum acacia): 96 % of control
T/C (dose: 25.0 mg/kg/injection, schedule: Q04DX002 (ip), vehicle: gum acacia): 114 % of control

CC1CC(C)(C)OC(C)(C)O1 (centres undefined)
T/C (dose: 50.0 mg/kg/injection, schedule: Q01DX009 (ip), vehicle: acetone): 90 % of control and 95 % of control
T/C (dose: 100.0 mg/kg/injection, schedule: Q01DX009 (ip), vehicle: acetone): 97 % of control and 94 % of control
T/C (dose: 100.0 mg/kg/injection, schedule: Q04DX002 (ip), vehicle: saline with Tween-80): 101 % of control
T/C (dose: 100.0 mg/kg/injection, schedule: Q04DX003 (ip), vehicle: acetone): 104 % of control and 109 % of control
T/C (dose: 200.0 mg/kg/injection, schedule: Q01DX009 (ip), vehicle: acetone): 94 % of control and 95 % of control
T/C (dose: 200.0 mg/kg/injection, schedule: Q04DX002 (ip), vehicle: saline with Tween-80): 93 % of control
T/C (dose: 200.0 mg/kg/injection, schedule: Q04DX003 (ip), vehicle: acetone): 95 % of control and 104 % of control
T/C (dose: 400.0 mg/kg/injection, schedule: Q04DX002 (ip), vehicle: saline with Tween-80): 104 % of control
T/C (dose: 400.0 mg/kg/injection, schedule: Q04DX003 (ip), vehicle: acetone): 94 % of control and 95 % of control

CNNP1(=O)OCC(C)([N+](=O)[O-])CO1 (centres undefined)
T/C (dose: 100.0 mg/kg/injection, schedule: Q01DX001 (ip), vehicle: saline): 101 % of control
T/C [10]: 101 % of control
